Test results from ChEMBL document CHEMBL3994622, “Design and synthesis of new RAF kinase-inhibiting antiproliferative quinoline derivatives. Part 2: Diarylurea derivatives” (Eur J Med Chem, 2017).

How the values were obtained:
Format in all cases: functional
TK-10 [1] = experiment: (§1) Growth inhibition of human TK10 cells assessed as cell growth at 10 uM incubated for 48 hrs by sulforhodamine B assay relative to control; details: TK-10, 48 h, read-out: Activity
NCI/ADR-RES [2] = experiment: Growth inhibition of human NCI/ADR-RES cells assessed as cell growth at 0.01 uM incubated for 48 hrs by sulforhodamine B assay relative to control; details: read-out: Activity
SK-OV-3 = experiment: Growth inhibition of human SKOV3 cells assessed as cell growth at 0.01 uM incubated for 48 hrs by sulforhodamine B assay relative to control; details: SK-OV-3, 48 h, read-out: Activity
NCI-H23 = experiment: Growth inhibition of human NCI-H23 cells assessed as cell growth at 0.1 uM incubated for 48 hrs by sulforhodamine B assay relative to control; details: NCI-H23, 48 h, read-out: Activity
SK-MEL-28 = experiment: Growth inhibition of human SK-MEL-28 cells assessed as cell growth at 0.1 uM incubated for 48 hrs by sulforhodamine B assay relative to control; details: SK-MEL-28, 48 h, read-out: Activity
BT-549 = experiment: Growth inhibition of human BT549 cells assessed as cell growth at 0.1 uM incubated for 48 hrs by sulforhodamine B assay relative to control; details: BT-549, 48 h, read-out: Activity
SF-539 [3] = experiment: Growth inhibition of human SF539 cells assessed as cell growth at 1 uM incubated for 48 hrs by sulforhodamine B assay relative to control; details: SF-539, 48 h, read-out: Activity
SK-MEL-5 = experiment: Growth inhibition of human SK-MEL-5 cells assessed as cell growth at 1 uM incubated for 48 hrs by sulforhodamine B assay relative to control; details: SK-MEL-5, 48 h, read-out: Activity
RXF 393 = experiment: Growth inhibition of human RXF393 cells assessed as cell growth at 1 uM incubated for 48 hrs by sulforhodamine B assay relative to control; details: RXF 393, 48 h, read-out: Activity
DU-145 = experiment: Growth inhibition of human DU145 cells assessed as cell growth at 1 uM incubated for 48 hrs by sulforhodamine B assay relative to control; details: DU-145, 48 h, read-out: Activity
T47D = experiment: Growth inhibition of human T47D cells assessed as cell growth at 1 uM incubated for 48 hrs by sulforhodamine B assay relative to control; details: read-out: Activity
SNB-19 = experiment: Growth inhibition of human SNB19 cells assessed as cell growth at 10 uM incubated for 48 hrs by sulforhodamine B assay relative to control; details: SNB-19, 48 h, read-out: Activity
UACC-62 = experiment: Growth inhibition of human UACC62 cells assessed as cell growth at 10 uM incubated for 48 hrs by sulforhodamine B assay relative to control; details: UACC-62, 48 h, read-out: Activity
OVCAR-8 = experiment: Growth inhibition of human OVCAR8 cells assessed as cell growth at 10 uM incubated for 48 hrs by sulforhodamine B assay relative to control; details: OVCAR-8, 48 h, read-out: Activity
TK-10 [4] = experiment: as §1; details: TK-10, 48 h, read-out: Activity; remark: listed apart in the source
CCRF-CEM = experiment: Growth inhibition of human CCRF-CEM cells assessed as cell growth at 100 uM incubated for 48 hrs by sulforhodamine B assay relative to control; details: read-out: Activity
NCI-H522 = experiment: Growth inhibition of human NCI-H522 cells assessed as cell growth at 100 uM incubated for 48 hrs by sulforhodamine B assay relative to control; details: NCI-H522, 48 h, read-out: Activity
SF-539 [5] = experiment: Growth inhibition of human SF539 cells assessed as cell growth at 100 uM incubated for 48 hrs by sulforhodamine B assay relative to control; details: SF-539, 48 h, read-out: Activity
MCF7 = experiment: Growth inhibition of human MCF7 cells assessed as cell growth at 100 uM incubated for 48 hrs by sulforhodamine B assay relative to control; details: MCF7, 48 h, read-out: Activity
MOLT-4 = experiment: Growth inhibition of human MOLT4 cells assessed as cell growth at 0.003 uM incubated for 48 hrs by sulforhodamine B assay relative to control; details: MOLT-4, 48 h, read-out: Activity
HOP-62 = experiment: Growth inhibition of human HOP62 cells assessed as cell growth at 0.003 uM incubated for 48 hrs by sulforhodamine B assay relative to control; details: HOP-62, 48 h, read-out: Activity
KM12 = experiment: Growth inhibition of human KM12 cells assessed as cell growth at 0.03 uM incubated for 48 hrs by sulforhodamine B assay relative to control; details: KM12, 48 h, read-out: Activity
K562 = experiment: Growth inhibition of human K562 cells assessed as cell growth at 0.3 uM incubated for 48 hrs by sulforhodamine B assay relative to control; details: K562, 48 h, read-out: Activity
SF-295 = experiment: Growth inhibition of human SF295 cells assessed as cell growth at 0.3 uM incubated for 48 hrs by sulforhodamine B assay relative to control; details: SF-295, 48 h, read-out: Activity
TK-10 [6] = experiment: Growth inhibition of human TK10 cells assessed as cell growth at 0.3 uM incubated for 48 hrs by sulforhodamine B assay relative to control; details: TK-10, 48 h, read-out: Activity
NCI-H322M = experiment: Growth inhibition of human NCI-H322M cells assessed as cell growth at 3 uM incubated for 48 hrs by sulforhodamine B assay relative to control; details: read-out: Activity
HCT-116 = experiment: Growth inhibition of human HCT116 cells assessed as cell growth at 3 uM incubated for 48 hrs by sulforhodamine B assay relative to control; details: HCT-116, 48 h, read-out: Activity
OVCAR-3 = experiment: Growth inhibition of human OVCAR3 cells assessed as cell growth at 3 uM incubated for 48 hrs by sulforhodamine B assay relative to control; details: OVCAR-3, 48 h, read-out: Activity
NCI/ADR-RES [7] = experiment: Growth inhibition of human NCI/ADR-RES cells assessed as cell growth at 3 uM incubated for 48 hrs by sulforhodamine B assay relative to control; details: read-out: Activity
UO-31 = experiment: Growth inhibition of human UO31 cells assessed as cell growth at 3 uM incubated for 48 hrs by sulforhodamine B assay relative to control; details: UO-31, 48 h, read-out: Activity
PC-3 = experiment: Growth inhibition of human PC3 cells assessed as cell growth at 3 uM incubated for 48 hrs by sulforhodamine B assay relative to control; details: PC-3, 48 h, read-out: Activity
HCC 2998 = experiment: Growth inhibition of human HCC2998 cells assessed as cell growth at 30 uM incubated for 48 hrs by sulforhodamine B assay relative to control; details: HCC 2998, 48 h, read-out: Activity
OVCAR-4 = experiment: Growth inhibition of human OVCAR4 cells assessed as cell growth at 30 uM incubated for 48 hrs by sulforhodamine B assay relative to control; details: OVCAR-4, 48 h, read-out: Activity
OVCAR-5 = experiment: Growth inhibition of human OVCAR5 cells assessed as cell growth at 30 uM incubated for 48 hrs by sulforhodamine B assay relative to control; details: OVCAR-5, 48 h, read-out: Activity

`COc1cc2cc(Oc3ccc(NC(=O)Nc4cc(C(F)(F)F)cc(C(F)(F)F)c4)cc3)c(C)nc2cc1OC` showed a growth at 10 µM (TK-10 [1]) of 13.2%, a growth at 0.01 µM (NCI/ADR-RES [2]) of 101% and a growth at 0.01 µM (SK-OV-3) of 91%. For the same compound, the growth at 0.1 µM (NCI-H23) was 96%, the growth at 0.1 µM (SK-MEL-28) was 102% and the growth at 0.1 µM (BT-549) was 94%. The growth at 1 µM (SF-539 [3]) was 73%, the growth at 1 µM (SK-MEL-5) was 84% and the growth at 1 µM (RXF 393) was 93%. The growth at 1 µM (DU-145) was 82%, the growth at 1 µM (T47D) was 64% and the growth at 10 µM (SNB-19) was -79%. It also gave a growth at 10 µM (UACC-62) of -74%, a growth at 10 µM (OVCAR-8) of -46% and a growth at 10 µM (TK-10 [4]) of -3%. The growth at 100 µM (CCRF-CEM) was -40%, the growth at 100 µM (NCI-H522) was -79% and the growth at 100 µM (SF-539 [5]) was -74%. For the same compound, the growth at 100 µM (MCF7) was -73%.

For `Cc1nc2cc(O)c(O)cc2cc1Oc1ccc(NC(=O)Nc2ccc(Cl)c(Cl)c2)cc1`, the growth at 10 µM (TK-10 [1]) was 85.3%, the growth at 0.003 µM (MOLT-4) was 106% and the growth at 0.003 µM (HOP-62) was 108%. It also gave a growth at 0.03 µM (KM12) of 103%, a growth at 0.3 µM (K562) of 123% and a growth at 0.3 µM (SF-295) of 89%. It also gave a growth at 0.3 µM (TK-10 [6]) of 98%, a growth at 3 µM (NCI-H322M) of 105% and a growth at 3 µM (HCT-116) of 42%. For the same compound, the growth at 3 µM (OVCAR-3) was 107%, the growth at 3 µM (NCI/ADR-RES [7]) was 85% and the growth at 3 µM (UO-31) was 100%. The growth at 3 µM (PC-3) was 56%, the growth at 30 µM (HCC 2998) was -51% and the growth at 30 µM (OVCAR-4) was 9%. For the same compound, the growth at 30 µM (OVCAR-5) was -6%.

`COc1cc2cc(Oc3ccc(NC(=O)Nc4ccc(Cl)c(Cl)c4)cc3)c(C)nc2cc1OC` gave a growth at 0.01 µM (NCI/ADR-RES [2]) of 101%, a growth at 0.01 µM (SK-OV-3) of 103% and a growth at 0.1 µM (NCI-H23) of 93%. It also gave a growth at 0.1 µM (SK-MEL-28) of 91%, a growth at 0.1 µM (BT-549) of 88% and a growth at 1 µM (SF-539 [3]) of 103%. The growth at 1 µM (SK-MEL-5) was 91%, the growth at 1 µM (RXF 393) was 104% and the growth at 1 µM (DU-145) was 102%. It also gave a growth at 1 µM (T47D) of 88%, a growth at 10 µM (SNB-19) of 25% and a growth at 10 µM (UACC-62) of 25%. The growth at 10 µM (OVCAR-8) was 13%, the growth at 10 µM (TK-10 [4]) was -4% and the growth at 100 µM (CCRF-CEM) was -26%. The growth at 100 µM (NCI-H522) was -63%, the growth at 100 µM (SF-539 [5]) was -54% and the growth at 100 µM (MCF7) was -50%.

With `COc1cc2cc(Oc3ccc(NC(=O)Nc4ccc(Cl)c(C(F)(F)F)c4)cc3)c(C)nc2cc1OC` the growth at 0.003 µM (MOLT-4) was 102%, the growth at 0.003 µM (HOP-62) was 99% and the growth at 0.03 µM (KM12) was 93%. For the same compound, the growth at 0.3 µM (K562) was 93%, the growth at 0.3 µM (SF-295) was 93% and the growth at 0.3 µM (TK-10 [6]) was 100%. For the same compound, the growth at 3 µM (NCI-H322M) was 35%, the growth at 3 µM (HCT-116) was 7% and the growth at 3 µM (OVCAR-3) was 14%. The growth at 3 µM (NCI/ADR-RES [7]) was 8%, the growth at 3 µM (UO-31) was -17% and the growth at 3 µM (PC-3) was -3%. For the same compound, the growth at 30 µM (HCC 2998) was -98%, the growth at 30 µM (OVCAR-4) was -62% and the growth at 30 µM (OVCAR-5) was -81%.
